According to patent publication US20260210939A1, “MODIFIED OLFACTORY RECEPTORS” (GIVAUDAN SA, priority 2022, published 2026):
Each block holds one molecule with its values, some of them ahead of it.

Key:
Type in all cases: cell-based
OR52A5 = target: T1, OR52A5 (Homo sapiens, UniProt Q9H2C5)
T1 construct: Improved functional expression of modified OR-genes containing the truncated, optimized C-terminus; expressed in transfected cells; host or cells: HEK293T stably expressing human RTP1S(V227I) and RTP2(L220R)
T1 sequence (Q9H2C5 with tags, fused parts or gaps): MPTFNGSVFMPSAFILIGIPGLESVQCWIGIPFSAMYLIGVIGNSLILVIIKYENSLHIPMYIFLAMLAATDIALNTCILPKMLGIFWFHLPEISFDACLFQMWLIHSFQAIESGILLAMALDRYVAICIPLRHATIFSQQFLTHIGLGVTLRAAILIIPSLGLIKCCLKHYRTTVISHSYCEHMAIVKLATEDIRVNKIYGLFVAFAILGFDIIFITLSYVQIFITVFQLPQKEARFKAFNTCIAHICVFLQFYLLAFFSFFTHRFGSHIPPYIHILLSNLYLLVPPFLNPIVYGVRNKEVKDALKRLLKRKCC
Description: Further variants of the improved C-terminal domain sequence […] (SEQ ID NO: 86) and falling within the general sequence RN[KR][EDQ][VMIL][KR]xA[LIV][KRH][KR][LI][LIF][KRG][KR][KR] (SEQ ID NO: 1) with further amino acids at the C-terminal end (CC) were tested on the class I receptor OR52A5 activated by 4-ethyloctanoic acid. […] This activation is further improved by either replacing amino acid position 4-6 with the sequence QIR or by adding the terminal sequence RRR.

OR5A2 = target: T2, OR5A2 (Homo sapiens, UniProt Q8NGI9); experiment: CRE-luciferase assay, HEK293T cells expressing OR5A2 (wild-type / modified C-terminus)
T2 construct: Improved functional expression of modified OR-genes containing the truncated, optimized C-terminus; expressed in transfected cells; host or cells: HEK293T with stably integrated human RTP1S(V227I) and RTP2(L220R)
T2 sequence (Q8NGI9 with tags, fused parts or gaps): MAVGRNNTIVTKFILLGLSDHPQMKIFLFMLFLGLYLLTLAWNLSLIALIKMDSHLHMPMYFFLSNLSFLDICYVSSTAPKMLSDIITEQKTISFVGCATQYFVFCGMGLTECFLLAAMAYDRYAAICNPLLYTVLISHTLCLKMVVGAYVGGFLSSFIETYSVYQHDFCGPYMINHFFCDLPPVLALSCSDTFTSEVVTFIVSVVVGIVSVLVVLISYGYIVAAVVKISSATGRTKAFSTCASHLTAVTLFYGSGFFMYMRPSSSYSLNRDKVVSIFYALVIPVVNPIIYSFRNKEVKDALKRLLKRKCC

OR10A3 = target: T3, OR10A3 (Homo sapiens, UniProt P58181); experiment: Dose-response test of single lactones on OR10A3 (luciferase)
T3 construct: Class II OR library members with modified C-terminal domains; expressed in transfected cells
T3 sequence (P58181 with tags, fused parts or gaps): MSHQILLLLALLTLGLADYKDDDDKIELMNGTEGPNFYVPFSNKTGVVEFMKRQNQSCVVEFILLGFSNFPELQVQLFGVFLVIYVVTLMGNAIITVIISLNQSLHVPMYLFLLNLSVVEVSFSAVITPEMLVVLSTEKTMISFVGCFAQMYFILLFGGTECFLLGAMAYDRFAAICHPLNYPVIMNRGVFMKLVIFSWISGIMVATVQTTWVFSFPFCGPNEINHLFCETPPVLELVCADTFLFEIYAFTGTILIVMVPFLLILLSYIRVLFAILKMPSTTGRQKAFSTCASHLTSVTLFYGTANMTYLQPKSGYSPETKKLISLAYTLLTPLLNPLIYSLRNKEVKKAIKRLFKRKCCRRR
Description: In a subsequent de-convultion experiment, the single ingredients were tested in a dose-response test on all the identified OR. […] Thus, OR2AP1 and OR2J2 are particularly strongly activated by the long-chain dodecalactone gamma, while OR10A3 is very sensitive to several longer chain lactones. […] Among the five OR, OR10A3 is the most sensitive.

Comments on efficacy (OR52A5): 2.5-fold lower | Fold-improvement threshold (OR52A5; changed C-term. vs wild-type): >10
Structure (SMILES): CCCCC(CC)CCC(=O)O (stereo not shown) [4-ethyloctanoic acid, reference compound]

Structure (SMILES): CC1COCc2cc3c(cc21)C(C)(C)C(C)C3(C)C (stereo not shown) [Galaxolide, reference compound]
Comments on efficacy (OR5A2): No induction | Detection threshold; concentration for 2-fold induction (OR5A2; changed C-term. SEQ ID NO: 86): 0.0016 µM | Fold-improvement potency (OR5A2; changed C-term. vs wild-type): >300 | Fold-improvement threshold (OR5A2; changed C-term. vs wild-type): >20000 | concentration at which activation occurs (OR5A2; modified OR5A2, SEQ ID NO: 86): < 0.01 µM | Detection threshold; concentration for 2-fold induction (OR5A2; wild-type): (>>31) μM

EC10, concentration for 10-fold OR activation (OR10A3): 298.04 μM
Structure (SMILES): CCCC1CCC(=O)O1 (stereo not shown) [Heptalactone gamma]

Structure (SMILES): CCOc1cc(C=O)ccc1O [ethyl vanillin, reference compound]
response of the modified receptor (OR5A2; modified OR5A2, SEQ ID NO: 86): no response
